# Measurements reported in patent US9301942B2, “Use of icaritin for the preparation of composition for treating cancer” (priority 2013, dated 2016).
# Key:
# [1] = tested on: patients suffering from advanced solid tumors; experiment: Phase Ib fixed-dose study, (serious) adverse events; format: in vivo, humans
# Protocol: (§1) 1.1 Phase 1a: Dose-escalating study with patients suffering from advanced breast cancer. Cohorts of 3-6 patients received one dose, and 6 planned doses of 50, 100, 200, 400, 800, 1600 mg/day were orally administered to the patients over at least a 28-day cycle. 1.2 Phase 1b: Fixed doses of Icaritin with 600 mg and 800 mg BID (Bis in diem) were administered to patients suffering from advanced solid tumors for at least a 28 day cycle. 2. Major Inclusion Criteria
# (§2) Phase Ib: Advanced cancer patients without standard treatment, especially HCC patients with Child-Pugh Class A or B liver function, were selected.
# (§3) Phase Ib: Patients with the following conditions were excluded: ECOG score≧2, ANC≦1500 cells/μL, platelet≦80,000 cells/μL, Hb≦9.0 g/dL, bilirubin>1.5×ULN, AST or ALT>5×ULN, or albumin<2.8 g/dL.
# (§4) The patients with the following conditions were also excluded: prior systemic chemotherapy, chemoembolization, percutaneous ethanol injection, or surgery for HCC<30 days.
# [2] = Phase Ia pharmacokinetics, plasma concentration before or after meal; format: in vivo, humans; conditions: for half-life: female, human, plasma, oral
# Protocol: as §1
# [3] = tested on: patients suffering from advanced breast cancer; experiment: Phase Ia dose-escalating study, tumor assessment every 28 days; format: in vivo, humans
# Protocol: (§5) The clinical trial includes two phases: Phase I aims to seek the maximum tolerated dose in the patients. Phase II aims to obtain the administration dosage to the patient treatments.
# as §1
# (§6) Phase Ia: Females of age≧18 years old and ≦65 years old, suffering from advanced breast cancer which was not responsive to previous standard treatments, were selected based on Eastern Cooperative Oncology Group (ECOG) score≦1.
# Tumor assessment was performed every 28 days. […] Further, 1 patient completed 9 cycles.
# [4] = tested on: patients suffering from advanced breast cancer; experiment: Phase Ia dose-escalating study, adverse events; format: in vivo; conditions: up to 1600 mg/d
# Source text: “Maximum Tolerated Dose (MTD)” means the highest dose of a radiological or pharmacological treatment that will produce the desired effect without unacceptable toxicity. In the present invention, MTD is one dose level below the cohort in which 2 patients experienced a drug-related dose limited toxicity in cycle 1.
# as §5, §1, §6
# [5] = tested on: HCC patients; experiment: Phase Ib efficacy and survival of HCC patients; format: in vivo, humans
# Source text: “CR” means a complete response was achieved after treatment, that is, all signs of cancer in the patient disappeared in response to the treatment.
# “SD” means a stable disease state was seen, that is, at the end of the treatment, the disease state of the patient was little changed from pre-treatment conditions.
# “OS” means overall survival days of patients. Overall survival is an indication of the proportion of people within a group who are expected to be alive after a specified time, taking into account death due to any cause, both related and unrelated to the cancer in question.
# “TTP” means time to progression in the patients, that is, the length of time from the date of diagnosis or the start of treatment for a disease until the disease starts to get worse or spread to other parts of the body. In a clinical trial, measuring the time to progression is one way to see how well a new treatment works.
# as §1, §2, §3, §4
# [6] = 600 mg bid (n = 12), based on evaluable patients, assessment every 2 cycles
# [7] = 800 mg bid (n = 5), based on evaluable patients, assessment every 2 cycles
structure (smiles),measurement,setting,value
COc1ccc(-c2oc3c(CC=C(C)C)c(O)cc(O)c3c(=O)c2O)cc1 [Icaritin],G2 drug-related adverse events,[1]; 600 mg and 800 mg BID,no G2 drug-related adverse events was observed
same,"Serious adverse event Cardiac sudden death, No",[1]; dose 600,1
same,"Serious adverse event Cardiac sudden death, outcomes",[1]; dose 600,death
same,"Serious adverse event Cardiac sudden death, relationship",[1]; dose 600,Unlikely related
same,"Serious adverse event Dyspnea, No",[1]; dose 600,2
same,"Serious adverse event Dyspnea, outcomes",[1]; dose 600,Death
same,"Serious adverse event Dyspnea, relationship",[1]; dose 600,Not related
same,"Serious adverse event Liver abscess, No",[1]; dose 600,1
same,"Serious adverse event Liver abscess, outcomes",[1]; dose 600,unresolved
same,"Serious adverse event Liver abscess, relationship",[1]; dose 600,Not related
same,"Serious adverse event epilepsy, No",[1]; dose 600,1
same,"Serious adverse event epilepsy, outcomes",[1]; dose 600,unresolved
same,"Serious adverse event epilepsy, relationship",[1]; dose 600,Not related
same,"Serious adverse event GI bleeding, No",[1]; dose 600/800,2
same,"Serious adverse event GI bleeding, outcomes",[1]; dose 600/800,resolved/death
same,"Serious adverse event GI bleeding, relationship",[1]; dose 600/800,Not related
same,"Serious adverse event Sepsis, No",[1]; dose 800,1
same,"Serious adverse event Sepsis, outcomes",[1]; dose 800,resolved
same,"Serious adverse event Sepsis, relationship",[1]; dose 800,Not related
same,"Serious adverse effect of pneumonia, relationship to drug",[1]; only one observed during study,not considered drug-related
same,Plasma concentration after a meal versus fasting,"[2]; 800 mg once daily, FIG. 1",higher
same,Absorption saturation,[2]; 1600 mg,absorption saturation occurs
same,Plasma concentration after a meal versus fasting,"[2]; 1600 mg once daily, FIG. 2",higher
same,Plasma concentration versus dose,"[2]; 400, 800 and 1600 mg once daily after meal, FIG. 3",increases with dose but not in a completely linear pattern
same,"Bioavailability, post-meal (fed) dosing versus fasting dosing",[2]; 800 and 1600 mg,better bioavailability in fed dosing
same,half-life,[2]; 800 mg Icaritin BID,288 ± 162 min
same,half-life,[2]; 1600 mg Icaritin BID,270 ± 48 min
same,Maximum plasma concentration at 800 mg compared with 1600 mg,"[2]; once daily after meal, FIG. 3",close to the plasma concentration of 1600 mg Icaritin
same,Tumor response (CR or PR),"[3]; Phase Ia, 50-1600 mg/day oral, assessment every 28 days",No CR or PR was observed
same,Anti-tumor effect in advanced breast cancer,[3]; overall conclusion,potential anti-tumor effect
same,Tolerability in patients with advanced malignancies,[4],well tolerated
same,Dose tolerated toxicity,[4]; this phase of clinical trial,no dose tolerated toxicity was found
same,"Best response PD, patients (%)",[5]; [6],4 (40%) patients (%)
same,"Best response PR, patients (%)",[5]; [6],1 (10%) patients (%)
same,"Best response SD, patients (%)",[5]; [6],5 (50%) patients (%)
same,"Best response PD, patients (%)",[5]; [7],3 (60%) patients (%)
same,"Best response PR, patients",[5]; [7],0 patients
same,"Best response SD, patients",[5]; [7],0 patients
same,Median OS of HCC patients,"[5]; Phase Ib, 17 patients analyzed, 95% CI:32-265, FIG. 7",113 days
same,Median TTP of HCC patients,"[5]; Phase Ib, FIG. 6",112 days
same,"AFP of HCC patient, as treatment progressed","[5]; after decrease under treatment, FIG. 5",3.53 ng/mL
same,"Abdominal lymph nodes, B-mode ultrasound image of an HCC patient","[5]; after eight months of treatment, FIG. 4a/4b",complete disappearance of abdominal lymph nodes
same,"AFP of HCC patient, start value","[5]; before the decrease, FIG. 5",5216 ng/mL
same,Efficacy in hepatocellular cancer,[5]; overall conclusion,promising efficacy
